Measured values reported in patent US20230085307A1, “PYRIDAZINONE COMPOUND AND HERBICIDE” (NISSAN CHEMICAL CORPORATION, priority 2019, published 2023).

Experiments:
chickweed [1] = assay: Test Example 4: herbicidal effect by soil treatment (Table 19, symbol P); assay type: in vivo, common chickweed (Stellaria media); settings: amount of applied herbicide 320 g/ha
In short: (§1)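 Soil-surface application: an emulsion agent diluted with water to the predetermined dose is sprayed uniformly over seeds lying under roughly 1.5 cm of sterilized diluvial soil. Boxes stay in a greenhouse at 25° C. to 30° C. Three weeks later, each species is graded on previously defined criteria.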

wild oat [2] = assay: Test Example 5: herbicidal effect by foliage application, plastic box (Table 20, symbol I); assay type: in vivo, wild oat (Avena fatua); settings: 320 g/ha, foliage application after 14-day growth, evaluated three weeks after application
In short: (§2)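 Sow seeds spot-wise in sterilized diluvial soil; cover with ~1.5 cm soil. Grow 14 days in greenhouse, 25° C. to 30° C. Spray foliage with emulsion diluted to predetermined amount. Rate effect after 3 weeks.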

blackgrass [3] = assay: Test Example 4: herbicidal effect by soil treatment (Table 19, symbol J); assay type: in vivo, blackgrass (Alopecurus myosuroides); settings: amount of applied herbicide 320 g/ha
In short: as §1

persian speedwell [4] = assay: Test Example 4: herbicidal effect by soil treatment (Table 19, symbol R); assay type: in vivo, Persian speedwell (Veronica persica); settings: amount of applied herbicide 320 g/ha
In short: as §1

lambsquarters [5] = assay: Test Example 5: herbicidal effect by foliage application, plastic box (Table 20, symbol O); assay type: in vivo, lambsquarters (Chenopodium album); settings: 320 g/ha, foliage application after 14-day growth, evaluated three weeks after application
In short: as §2

wild oat [6] = assay: Test Example 4: herbicidal effect by soil treatment (Table 19, symbol I); assay type: in vivo, wild oat (Avena fatua); settings: amount of applied herbicide 320 g/ha
In short: as §1

Italian ryegrass [7] = assay: Test Example 4: herbicidal effect by soil treatment (Table 19, symbol K); assay type: in vivo, Italian ryegrass (Lolium multiflorum); settings: amount of applied herbicide 320 g/ha
In short: as §1

barnyard grass [8] = assay: Test Example 3: herbicidal effect by foliage application, Wagner pot (Table 18, symbol H); assay type: in vivo, barnyard grass (Echinochloa crus-galli); settings: 320 g/ha
In short: (§3)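 Plants were sown in alluvial soil held under 0.1–0.5 cm standing water and grown 14 days in a greenhouse at 25–30 °C. An emulsifiable formulation, water-diluted to the set dose, was then sprayed onto the foliage, and effects were scored three weeks later using previously defined criteria.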

oval-leafed pondweed = assay: Test Example 1: herbicidal activity, application before weed generation under submerged conditions (Table 16, symbol C); assay type: in vivo, oval-leafed pondweed (Monochoria vaginalis); settings: amount of applied herbicide 320 g/ha
In short: (§4)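 Emulsion formulation, water-diluted to set dose, was put onto the flooded surface (4 cm depth, alluvial soil) the same day weeds were sown and 2.5-leaf rice transplanted. After 3 weeks at 25-30 °C under glass, each species was rated 0 (≤5% kill) to 5 (≥90% kill).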

redroot pigweed [9] = assay: Test Example 5: herbicidal effect by foliage application, plastic box (Table 20, symbol N); assay type: in vivo, redroot pigweed (Amaranthus retroflexus); settings: 320 g/ha, foliage application after 14-day growth, evaluated three weeks after application
In short: as §2

green foxtail [10] = assay: Test Example 5: herbicidal effect by foliage application, plastic box (Table 20, symbol G); assay type: in vivo, green foxtail (Setaria viridis); settings: 320 g/ha, foliage application after 14-day growth, evaluated three weeks after application
In short: as §2

blackgrass [11] = assay: Test Example 5: herbicidal effect by foliage application, plastic box (Table 20, symbol J); assay type: in vivo, blackgrass (Alopecurus myosuroides); settings: 320 g/ha, foliage application after 14-day growth, evaluated three weeks after application
In short: as §2

late watergrass = assay: Test Example 1: herbicidal activity, application before weed generation under submerged conditions (Table 16, symbol A); assay type: in vivo, late watergrass (Echinochloa oryzicola); settings: amount of applied herbicide 320 g/ha
In short: as §4

barnyard grass [12] = assay: Test Example 4: herbicidal effect by soil treatment (Table 19, symbol H); assay type: in vivo, barnyard grass (Echinochloa crus-galli); settings: amount of applied herbicide 320 g/ha
In short: as §1

Japanese bulrush = assay: Test Example 1: herbicidal activity, application before weed generation under submerged conditions (Table 16, symbol B); assay type: in vivo, Japanese bulrush (Schoenoplectus juncoides); settings: amount of applied herbicide 320 g/ha
In short: as §4

lambsquarters [13] = assay: Test Example 4: herbicidal effect by soil treatment (Table 19, symbol O); assay type: in vivo, lambsquarters (Chenopodium album); settings: amount of applied herbicide 320 g/ha
In short: as §1

persian speedwell [14] = assay: Test Example 5: herbicidal effect by foliage application, plastic box (Table 20, symbol R); assay type: in vivo, Persian speedwell (Veronica persica); settings: 320 g/ha, foliage application after 14-day growth, evaluated three weeks after application
In short: as §2

barnyard grass [15] = assay: Test Example 5: herbicidal effect by foliage application, plastic box (Table 20, symbol H); assay type: in vivo, barnyard grass (Echinochloa crus-galli); settings: 320 g/ha, foliage application after 14-day growth, evaluated three weeks after application
In short: as §2

Chinese sprangletop = assay: Test Example 3: herbicidal effect by foliage application, Wagner pot (Table 18, symbol D); assay type: in vivo, chinese sprangletop (Leptochloa chinensis); settings: 320 g/ha
In short: as §3

rice flat sedge = assay: Test Example 3: herbicidal effect by foliage application, Wagner pot (Table 18, symbol E); assay type: in vivo, rice flat sedge (Cyperus iria); settings: 320 g/ha
In short: as §3

velvetleaf [16] = assay: Test Example 4: herbicidal effect by soil treatment (Table 19, symbol M); assay type: in vivo, velvetleaf (Abutilon theophrasti); settings: amount of applied herbicide 320 g/ha
In short: as §1

chickweed [17] = assay: Test Example 5: herbicidal effect by foliage application, plastic box (Table 20, symbol P); assay type: in vivo, common chickweed (Stellaria media); settings: 320 g/ha, foliage application after 14-day growth, evaluated three weeks after application
In short: as §2

velvetleaf [18] = assay: Test Example 5: herbicidal effect by foliage application, plastic box (Table 20, symbol M); assay type: in vivo, velvetleaf (Abutilon theophrasti); settings: 320 g/ha, foliage application after 14-day growth, evaluated three weeks after application
In short: as §2

windgrass [19] = assay: Test Example 4: herbicidal effect by soil treatment (Table 19, symbol L); assay type: in vivo, windgrass (Apera spica-venti); settings: amount of applied herbicide 320 g/ha
In short: as §1

green foxtail [20] = assay: Test Example 4: herbicidal effect by soil treatment (Table 19, symbol G); assay type: in vivo, green foxtail (Setaria viridis); settings: amount of applied herbicide 320 g/ha
In short: as §1

southern crabgrass [21] = assay: Test Example 4: herbicidal effect by soil treatment (Table 19, symbol F); assay type: in vivo, southern crabgrass (Digitaria ciliaris); settings: amount of applied herbicide 320 g/ha
In short: as §1

Italian ryegrass [22] = assay: Test Example 5: herbicidal effect by foliage application, plastic box (Table 20, symbol K); assay type: in vivo, Italian ryegrass (Lolium multiflorum); settings: 320 g/ha, foliage application after 14-day growth, evaluated three weeks after application
In short: as §2

redroot pigweed [23] = assay: Test Example 4: herbicidal effect by soil treatment (Table 19, symbol N); assay type: in vivo, redroot pigweed (Amaranthus retroflexus); settings: amount of applied herbicide 320 g/ha
In short: as §1

windgrass [24] = assay: Test Example 5: herbicidal effect by foliage application, plastic box (Table 20, symbol L); assay type: in vivo, windgrass (Apera spica-venti); settings: 320 g/ha, foliage application after 14-day growth, evaluated three weeks after application
In short: as §2

southern crabgrass [25] = assay: Test Example 5: herbicidal effect by foliage application, plastic box (Table 20, symbol F); assay type: in vivo, southern crabgrass (Digitaria ciliaris); settings: 320 g/ha, foliage application after 14-day growth, evaluated three weeks after application
In short: as §2

`CCOc1ccccc1-c1sc2c(F)cccc2c1-c1c(O)c(C)nn(C)c1=O` [4-007] was tested, and the “Herbicidal effect by soil treatment, P: chickweed” value (chickweed [1]) was 3 (Herbicidal rate of 40% or more and less than 70%), the “herbicidal effect on I: wild oat (evaluation grade 0-5)” value (wild oat [2]) was 2 (Herbicidal rate of 20% or more and less than 40%) and the “Herbicidal effect by soil treatment, J: blackgrass” value (blackgrass [3]) was 3 (Herbicidal rate of 40% or more and less than 70%). For the same molecule, the “Herbicidal effect by soil treatment, R: persian speedwell” value (persian speedwell [4]) was 3 (Herbicidal rate of 40% or more and less than 70%), the “herbicidal effect on O: lambsquarters (evaluation grade 0-5)” value (lambsquarters [5]) was 1 (Herbicidal rate of 5% or more and less than 20%) and the “Herbicidal effect by soil treatment, I: wild oat” value (wild oat [6]) was 0 (Herbicidal rate of 5% or less (almost no effect)). For the same molecule, the “Herbicidal effect by soil treatment, K: Italian ryegrass” value (Italian ryegrass [7]) was 0 (Herbicidal rate of 5% or less (almost no effect)), the “herbicidal effect on barnyard grass (H)” value (barnyard grass [8]) was 5 (Herbicidal rate of 90% or more (almost completely withered)) and the “Herbicidal effect, C: oval-leafed pondweed” value (oval-leafed pondweed) was 0 (Herbicidal rate of 5% or less (almost no effect)). The “herbicidal effect on N: redroot pigweed (evaluation grade 0-5)” value (redroot pigweed [9]) was 3 (Herbicidal rate of 40% or more and less than 70%), the “herbicidal effect on G: green foxtail (evaluation grade 0-5)” value (green foxtail [10]) was 5 (Herbicidal rate of 90% or more (almost completely withered)) and the “herbicidal effect on J: blackgrass (evaluation grade 0-5)” value (blackgrass [11]) was 4 (Herbicidal rate of 70% or more and less than 90%). The “Herbicidal effect, A: late watergrass” value (late watergrass) was 3 (Herbicidal rate of 40% or more and less than 70%), the “Herbicidal effect by soil treatment, H: barnyard grass” value (barnyard grass [12]) was 0 (Herbicidal rate of 5% or less (almost no effect)) and the “Herbicidal effect, B: Japanese bulrush” value (Japanese bulrush) was 0 (Herbicidal rate of 5% or less (almost no effect)). For the same molecule, the “Herbicidal effect by soil treatment, O: lambsquarters” value (lambsquarters [13]) was 0 (Herbicidal rate of 5% or less (almost no effect)), the “herbicidal effect on R: persian speedwell (evaluation grade 0-5)” value (persian speedwell [14]) was 5 (Herbicidal rate of 90% or more (almost completely withered)) and the “herbicidal effect on H: barnyard grass (evaluation grade 0-5)” value (barnyard grass [15]) was 4 (Herbicidal rate of 70% or more and less than 90%). For the same molecule, the “herbicidal effect on Chinese sprangletop (D)” value (Chinese sprangletop) was 3 (Herbicidal rate of 40% or more and less than 70%), the “herbicidal effect on rice flat sedge (E)” value (rice flat sedge) was 5 (Herbicidal rate of 90% or more (almost completely withered)) and the “Herbicidal effect by soil treatment, M: velvetleaf” value (velvetleaf [16]) was 0 (Herbicidal rate of 5% or less (almost no effect)). The “herbicidal effect on P: chickweed (evaluation grade 0-5)” value (chickweed [17]) was 5 (Herbicidal rate of 90% or more (almost completely withered)), the “herbicidal effect on M: velvetleaf (evaluation grade 0-5)” value (velvetleaf [18]) was 3 (Herbicidal rate of 40% or more and less than 70%) and the “Herbicidal effect by soil treatment, L: windgrass” value (windgrass [19]) was 0 (Herbicidal rate of 5% or less (almost no effect)). The “Herbicidal effect by soil treatment, G: green foxtail” value (green foxtail [20]) was 0 (Herbicidal rate of 5% or less (almost no effect)), the “Herbicidal effect by soil treatment, F: southern crabgrass” value (southern crabgrass [21]) was 0 (Herbicidal rate of 5% or less (almost no effect)) and the “herbicidal effect on K: Italian ryegrass (evaluation grade 0-5)” value (Italian ryegrass [22]) was 4 (Herbicidal rate of 70% or more and less than 90%). The “Herbicidal effect by soil treatment, N: redroot pigweed” value (redroot pigweed [23]) was 0 (Herbicidal rate of 5% or less (almost no effect)), the “herbicidal effect on L: windgrass (evaluation grade 0-5)” value (windgrass [24]) was 2 (Herbicidal rate of 20% or more and less than 40%) and the “herbicidal effect on F: southern crabgrass (evaluation grade 0-5)” value (southern crabgrass [25]) was 3 (Herbicidal rate of 40% or more and less than 70%).
